Data reported in patent US6452001B2, “Diazapane derivatives useful as antagonists of neurokinin 1 receptor and methods for their formation” (Hoffmann-La Roche Inc., priority 2000, dated 2002).
pKi: −log10 of the molar value. Where a name gives a salt, the structure may show the parent alone.

Target: T1, human NK1 receptor (Homo sapiens, UniProt P25103)
T1 construct: expressed in transfected cells; host or cells: CHO cells infected using the Semliki virus expression system; membrane suspension
Experiment: NK1 receptor binding assay, [3H]substance P displacement
Details: affinity to the NK-1 receptor; human NK1 receptors in CHO cells, [3H]substance P 0.6 nM
Experimental: The affinity of test compounds for the NK1 receptor was evaluated at human NK1 receptors in CHO cells infected with the human NK1 receptor (using the Semliki virus expression system) and radiolabelled with [^3H]substance P (final concentration 0.6 nM). Binding assays were performed in HEPES buffer (50 mM, pH 7.4) containing BSA (0.04 %) leupeptin (8 μg/ml), MnCl2 (3 mM) and phosphoramidon (2 μM). Binding assays consisted of 250 μl of membrane suspension (1.25×10^5 cells/assay tube), […] of buffer of displacing agent and 125 μl of [^3H]substance P. Displacement curves were determined with at least seven concentrations of the compound. The assay tubes were incubated for 60 min at room temperature after which time the tube contents were rapidly filtered under vacuum through GF/C filters presoaked for 60 min with PEI (0.3 %) with 2×2 ml washed of HEPES buffer (50 mM, pH 7.4). The radioactivity retained on the filters was measured by scintillation counting. All assays were performed in triplicate in at least 2 separate experiments.

T1 sequence (P25103 whole entry): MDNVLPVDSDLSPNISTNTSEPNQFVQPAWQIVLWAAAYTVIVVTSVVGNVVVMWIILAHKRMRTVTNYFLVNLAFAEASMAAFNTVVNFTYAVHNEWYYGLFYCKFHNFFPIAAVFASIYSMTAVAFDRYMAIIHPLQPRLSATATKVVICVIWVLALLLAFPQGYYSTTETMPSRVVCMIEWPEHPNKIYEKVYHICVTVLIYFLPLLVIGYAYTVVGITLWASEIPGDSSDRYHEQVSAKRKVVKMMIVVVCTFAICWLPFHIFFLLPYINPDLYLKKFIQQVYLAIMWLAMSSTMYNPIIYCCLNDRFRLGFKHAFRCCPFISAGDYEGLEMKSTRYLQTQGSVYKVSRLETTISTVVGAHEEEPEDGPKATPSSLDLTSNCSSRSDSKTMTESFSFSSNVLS

Compound	pKi
CCOc1ccc2ccccc2c1CN1CCC(=O)NC(Cc2ccc(Cl)c(Cl)c2)C1=O (racemic) [Example 17, (RS)-3-(3,4-Dichloro-benzyl)-1-(2-ethoxy-naphthalen-1-yl-methyl)-[1,4]diazepane-2,5-dione]	8.27
COc1ccc2ccccc2c1CN1CCC(=O)N[C@@H](Cc2ccc(Cl)c(Cl)c2)C1=O [Example 15, (3S)-3-(3,4-Dichloro-benzyl)-1-(2-methoxy-naphthalen-1-yl-methyl)-[1,4]diazepane-2,5-dione]	8.49
Cc1ccc2ccccc2c1CN1CCC(=O)N[C@@H](Cc2ccc(Cl)c(Cl)c2)C1=O [Example 16, (3S)-3-(3,4-Dichloro-benzyl)-1-(2-methyl-naphthalen-1-yl-methyl)-[1,4]diazepane-2,5-dione]	8.42
COc1ccc2ccccc2c1CN1CCc2nncn2[C@@H](Cc2ccc(Cl)c(Cl)c2)C1=O [Example 19, (4S)-4-(3,4-Dichloro-benzyl)-6-(2-methoxy-naphthalen-1-yl-methyl)-7,8-dihydro-6H-1,2,3a,6-tetraaza-azulen-5-one]	8.76

Now from value to compound:

pKi	Compound
8.61	O=C1C(Cc2ccc(Cl)c(Cl)c2)n2cnnc2CCN1Cc1cc(C(F)(F)F)cc(C(F)(F)F)c1 (racemic) [Example 20, (RS)-6-(3,5-Bis-trifluoromethyl-benzyl)-4-(3,4-dichloro-benzyl)-7,8-dihydro-6H-1,2,3a,6-tetraaza-azulen-5-one]
8.41	O=C1C(Cc2ccc(Cl)c(Cl)c2)n2c(CCN3CCOCC3)nnc2CCN1Cc1cc(C(F)(F)F)cc(C(F)(F)F)c1 (racemic) [Example 21, (RS)-6-(3,5-Bis-trifluoromethyl-benzyl)-4-(3,4-dichloro-benzyl)-3-(2-morpholin-4-yl-ethyl)-7,8-dihydro-6H-1,2,3a,6-tetraaza-azulen-5-one]
8.36	CN(C)Cc1nnc2n1C(Cc1ccc(Cl)c(Cl)c1)C(=O)N(Cc1cc(C(F)(F)F)cc(C(F)(F)F)c1)CC2 (racemic) [Example 23, (RS)-6-(3,5-Bis-trifluoromethyl-benzyl)-4-(3,4-dichloro-benzyl)-3-dimethylaminomethyl-7,8-dihydro-6H-1,2,3a,6-tetraaza-azulen-5-one]
8.25	CN1CCCCC1c1nnc2n1C(Cc1ccc(Cl)c(Cl)c1)C(=O)N(Cc1cc(C(F)(F)F)cc(C(F)(F)F)c1)CC2 (racemic) [Example 24, (RS)-6-(3,5-Bis-trifluoromethyl-benzyl)-4-(3,4-dichloro-benzyl)-3-(1-methyl-piperidin-2-yl)-7,8-dihydro-6H-1,2,3a,6-tetraaza-azulen-5-one]
8.15	CCCN=C1CCN(Cc2cc(C(F)(F)F)cc(C(F)(F)F)c2)C(=O)C(Cc2ccc(Cl)c(Cl)c2)N1 (racemic) [Example 26, (RS)-1-(3,5-Bis-trifluoromethyl-benzyl)-3-(3,4-dichloro-benzyl)-5-propylimino-[1,4]diazepan-2-one hydrochloride]
